# According to US20240074996A1, “C5 KETONE COMPOSITIONS AND RELATED METHODS FOR TREATING METABOLIC DYSFUNCTION” (Keto Innovations, LLC, priority 2018, published 2024):
# Legend:
# [1] = Visual analog scale of well-being after BHP or BKP (Example 1); assay type: in vivo, human; conditions: scale 1-10, 10 g oral, 12 h fast
# Procedure: (§1) Two (2) healthy, male subjects reported to the laboratory following a 12 hour overnight fast. Subjects were instructed to randomly consume either 10 grams of BHP or 10 grams BKP dissolved in 12 ounces of water. Subjects were then monitored for 150 minutes following drinking the mixture. Blood glucose, ketones, and visual analog scales (VAS) of well-being, energy, and focus were taken at 0, 30, 60, 90, 120, and 150 minutes. VAS scales consisted of a continuum of numbers from 1-10 with 1 being extremely low and 10 being extremely high.
# [2] = Blood ketones after oral BHP (Example 3); assay type: in vivo, human; conditions: 10 g BHP oral in water
# Procedure: (§2) Subjects consumed 10 grams of BHP dissolved in 12 ounces of water. Subjects were then monitored for 80 minutes following drinking the mixture. Blood glucose, ketones, and lactate were taken at 0, 20, 40, 60, and 80 minutes.
# (§3) Blood ketones were measured via finger prick using an Abbott Precision device which determines mMol of BHB. Blood glucose was measured using Abbott Precision glucose strips and was measured in mg/dL. Blood lactate was measured using an Abbott Precision device which determines mMol of lactate.
# [3] = Visual analog scale of focus after BHP or BKP (Example 1); assay type: in vivo, human; conditions: scale 1-10, 10 g oral, 12 h fast
# Procedure: as §1
# [4] = Visual analog scale of energy after BHP or BKP (Example 1); assay type: in vivo, human; conditions: scale 1-10, 10 g oral, 12 h fast
# Procedure: as §1
# [5] = short-term experiments; large supply of propionyl-CoA; cited from earlier work
# [6] = Blood lactate after oral BHP, safety (Example 3); assay type: in vivo, human; conditions: 10 g BHP oral in water
# Procedure: The purpose of this experiment was to determine safety associated with ingestion of exogenous C5 ketones with regard to hyperlactemia, lactic acidosis, or ketoacidosis that sometimes happens with medications, as all 3 are associated with morbidity and mortality.
# as §2, §3
# [7] = Blood glucose after oral BHP or BKP (Example 1); assay type: in vivo, human; conditions: 10 g oral in water, 12 h fast
# Procedure: as §1
# (§4) Blood ketones were measured via finger prick using an Abbott Precision device which determines mMol of BHB. Blood glucose was measured using Abbott Precision glucose strips and was measured in mg/dL.
# [8] = Blood ketones (BHB, Abbott Precision) after oral BHP or BKP (Example 1); assay type: in vivo, human; conditions: 10 g oral in water, 12 h fast
# Procedure: as §1, §4
# [9] = Blood glucose after oral BHP (Example 3); assay type: in vivo, human; conditions: 10 g BHP oral in water
# Procedure: as §2, §3
structure (smiles),measurement,setting,value
"CCC(O)CC(=O)O (stereo not drawn) [BHP, β-hydroxypentanoate]",VAS of Well-Being,"[1]; Combined, 0 min.",6
same,VAS of Well-Being,"[1]; Combined, 30 min.",5
same,VAS of Well-Being,"[1]; Combined, 60 min.",4.5
same,VAS of Well-Being,"[1]; Combined, 90 min.",6
same,VAS of Well-Being,"[1]; Combined, 120 min.",4.5
same,VAS of Well-Being,"[1]; Combined, 150 min.",5
same,VAS of Well-Being,"[1]; Subject 1, 0 min.",7
same,VAS of Well-Being,"[1]; Subject 1, 30 min.",5
same,VAS of Well-Being,"[1]; Subject 1, 60 min.",5
same,VAS of Well-Being,"[1]; Subject 1, 90 min.",7
same,VAS of Well-Being,"[1]; Subject 1, 120 min.",5
same,VAS of Well-Being,"[1]; Subject 1, 150 min.",6
same,VAS of Well-Being,"[1]; Subject 2, 0 min.",5
same,VAS of Well-Being,"[1]; Subject 2, 30 min.",5
same,VAS of Well-Being,"[1]; Subject 2, 60 min.",4
same,VAS of Well-Being,"[1]; Subject 2, 90 min.",5
same,VAS of Well-Being,"[1]; Subject 2, 120 min.",4
same,VAS of Well-Being,"[1]; Subject 2, 150 min.",4
same,Blood Ketones,[2]; 0 min.,0.3 mmol/L
same,Blood Ketones,[2]; 20 min.,0.6 mmol/L
same,Blood Ketones,[2]; 40 min.,1.8 mmol/L
same,Blood Ketones,[2]; 60 min.,1.1 mmol/L
same,Blood Ketones,[2]; 80 min.,0.5 mmol/L
same,VAS of Focus,"[3]; Combined, 0 min.",3.5
same,VAS of Focus,"[3]; Combined, 30 min.",4
same,VAS of Focus,"[3]; Combined, 60 min.",3
same,VAS of Focus,"[3]; Combined, 90 min.",3
same,VAS of Focus,"[3]; Combined, 120 min.",5
same,VAS of Focus,"[3]; Combined, 150 min.",5
same,VAS of Focus,"[3]; Subject 1, 0 min.",5
same,VAS of Focus,"[3]; Subject 1, 30 min.",5
same,VAS of Focus,"[3]; Subject 1, 60 min.",5
same,VAS of Focus,"[3]; Subject 1, 90 min.",5
same,VAS of Focus,"[3]; Subject 1, 120 min.",5
same,VAS of Focus,"[3]; Subject 1, 150 min.",5
same,VAS of Focus,"[3]; Subject 2, 0 min.",2
same,VAS of Focus,"[3]; Subject 2, 30 min.",3
same,VAS of Focus,"[3]; Subject 2, 60 min.",3
same,VAS of Focus,"[3]; Subject 2, 90 min.",3
same,VAS of Focus,"[3]; Subject 2, 120 min.",5
same,VAS of Focus,"[3]; Subject 2, 150 min.",5
same,VAS of Energy,"[4]; Combined, 0 min.",4
same,VAS of Energy,"[4]; Combined, 30 min.",3.5
same,VAS of Energy,"[4]; Combined, 60 min.",3.5
same,VAS of Energy,"[4]; Combined, 90 min.",5
same,VAS of Energy,"[4]; Combined, 120 min.",4.5
same,VAS of Energy,"[4]; Combined, 150 min.",6
same,VAS of Energy,"[4]; Subject 1, 0 min.",5
same,VAS of Energy,"[4]; Subject 1, 30 min.",4
same,VAS of Energy,"[4]; Subject 1, 60 min.",5
same,VAS of Energy,"[4]; Subject 1, 90 min.",7
same,VAS of Energy,"[4]; Subject 1, 120 min.",5
same,VAS of Energy,"[4]; Subject 1, 150 min.",7
same,VAS of Energy,"[4]; Subject 2, 0 min.",3
same,VAS of Energy,"[4]; Subject 2, 30 min.",3
same,VAS of Energy,"[4]; Subject 2, 60 min.",2
same,VAS of Energy,"[4]; Subject 2, 90 min.",3
same,VAS of Energy,"[4]; Subject 2, 120 min.",4
same,VAS of Energy,"[4]; Subject 2, 150 min.",5
same,Metabolism and tolerance in animals,[5],well metabolized in animals without apparent intolerance
same,Blood Lactate,[6]; 0 min.,1.3 mmol/L
same,Blood Lactate,[6]; 20 min.,1.4 mmol/L
same,Blood Lactate,[6]; 40 min.,0.7 mmol/L
same,Blood Lactate,[6]; 60 min.,0.9 mmol/L
same,Blood Lactate,[6]; 80 min.,1.1 mmol/L
same,Blood glucose levels,"[7]; Combined, 0 min.",84 mg/dL
same,Blood glucose levels,"[7]; Combined, 30 min.",80.5 mg/dL
same,Blood glucose levels,"[7]; Combined, 60 min.",70.5 mg/dL
same,Blood glucose levels,"[7]; Combined, 90 min.",79 mg/dL
same,Blood glucose levels,"[7]; Combined, 120 min.",83.5 mg/dL
same,Blood glucose levels,"[7]; Combined, 150 min.",90.5 mg/dL
same,Blood glucose levels,"[7]; Subject 1, 0 min.",84 mg/dL
same,Blood glucose levels,"[7]; Subject 1, 30 min.",85 mg/dL
same,Blood glucose levels,"[7]; Subject 1, 60 min.",75 mg/dL
same,Blood glucose levels,"[7]; Subject 1, 90 min.",79 mg/dL
same,Blood glucose levels,"[7]; Subject 1, 120 min.",86 mg/dL
same,Blood glucose levels,"[7]; Subject 1, 150 min.",91 mg/dL
same,Blood glucose levels,"[7]; Subject 2, 0 min.",84 mg/dL
same,Blood glucose levels,"[7]; Subject 2, 30 min.",76 mg/dL
same,Blood glucose levels,"[7]; Subject 2, 60 min.",66 mg/dL
same,Blood glucose levels,"[7]; Subject 2, 90 min.",79 mg/dL
same,Blood glucose levels,"[7]; Subject 2, 120 min.",81 mg/dL
same,Blood glucose levels,"[7]; Subject 2, 150 min.",90 mg/dL
same,Blood ketone levels,"[8]; Combined, 0 min.",0.1 mmol
same,Blood ketone levels,"[8]; Combined, 30 min.",1.6 mmol
same,Blood ketone levels,"[8]; Combined, 60 min.",0.55 mmol
same,Blood ketone levels,"[8]; Combined, 90 min.",0.2 mmol
same,Blood ketone levels,"[8]; Combined, 120 min.",0.3 mmol
same,Blood ketone levels,"[8]; Combined, 150 min.",0.2 mmol
same,Blood ketone levels,"[8]; Subject 1, 0 min.",0.1 mmol
same,Blood ketone levels,"[8]; Subject 1, 30 min.",1.8 mmol
same,Blood ketone levels,"[8]; Subject 1, 60 min.",0.7 mmol
same,Blood ketone levels,"[8]; Subject 1, 90 min.",0.2 mmol
same,Blood ketone levels,"[8]; Subject 1, 120 min.",0.2 mmol
same,Blood ketone levels,"[8]; Subject 1, 150 min.",0.2 mmol
same,Blood ketone levels,"[8]; Subject 2, 0 min.",0.1 mmol
same,Blood ketone levels,"[8]; Subject 2, 30 min.",1.4 mmol
same,Blood ketone levels,"[8]; Subject 2, 60 min.",0.4 mmol
same,Blood ketone levels,"[8]; Subject 2, 90 min.",0.2 mmol
same,Blood ketone levels,"[8]; Subject 2, 120 min.",0.4 mmol
same,Blood ketone levels,"[8]; Subject 2, 150 min.",0.2 mmol
same,Blood Glucose,[9]; 0 min.,99.5 mg/dL
same,Blood Glucose,[9]; 20 min.,103 mg/dL
same,Blood Glucose,[9]; 40 min.,102.5 mg/dL
same,Blood Glucose,[9]; 60 min.,94.5 mg/dL
same,Blood Glucose,[9]; 80 min.,92.5 mg/dL
